These compounds were tested against T1, Human CARM1 (PRMT4) (Homo sapiens, UniProt Q86X55) (assay: CARM1 Biochemical Assay (3H-SAM Flashplate, peptide substrate)). Settings: 30 min preincubation.
T1 construct: Flag-CARM1-His was eluted with 200 ug/ml FLAG peptide in buffer A; made in house; host or cells: HEK 293F cells (BacMam baculovirus, pFastBacMam)
T1 sequence (Q86X55 1-585 isoform Q86X55-1): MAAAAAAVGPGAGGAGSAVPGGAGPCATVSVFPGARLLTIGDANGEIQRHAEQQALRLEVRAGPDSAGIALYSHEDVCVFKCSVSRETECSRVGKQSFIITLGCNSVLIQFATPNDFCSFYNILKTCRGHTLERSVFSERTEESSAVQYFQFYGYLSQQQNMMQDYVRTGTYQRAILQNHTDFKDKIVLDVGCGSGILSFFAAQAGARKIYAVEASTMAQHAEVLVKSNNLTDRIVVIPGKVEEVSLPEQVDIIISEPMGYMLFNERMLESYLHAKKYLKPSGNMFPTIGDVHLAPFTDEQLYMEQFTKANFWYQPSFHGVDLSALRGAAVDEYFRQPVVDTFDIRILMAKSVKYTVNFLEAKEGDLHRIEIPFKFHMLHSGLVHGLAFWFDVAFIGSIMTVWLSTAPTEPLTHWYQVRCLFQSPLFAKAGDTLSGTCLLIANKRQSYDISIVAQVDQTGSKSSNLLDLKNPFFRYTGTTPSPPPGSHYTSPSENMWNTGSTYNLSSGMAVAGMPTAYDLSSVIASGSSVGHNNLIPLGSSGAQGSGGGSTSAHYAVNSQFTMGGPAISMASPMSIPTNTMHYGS
Text: Peptide representative of human histone H3 residues 16-30 was synthesized with an N-terminal linker-affinity tag motif and a C-terminal amide cap by 21st Century Biochemicals. The peptide was purified by high-performance liquid chromatography (HPLC) to greater than 95% purity and confirmed by liquid chromatography mass spectrometry (LC-MS). The sequence was Biot-Ahx-[…]-amide and contained a monomethylated arginine at position 26 (SEQ ID NO:14).
Human CARM1 (PRMT4) (NM_199141.1) transcript clone was amplified from an HEK 293 cDNA library, incorporating a flanking 5′ sequence encoding a FLAG tag ([…]) (SEQ ID NO:6) fused directly to Ala 2 of CARM1 and 3′ sequence encoding a hexa His sequence ([…]) (SEQ ID NO:15) fused directly to Ser 608. The gene sequence encoding isoform1 containing a deletion of amino acids 539-561 was amplified subsequently and subcloned into pFastBacMam (Viva Biotech).
Column was washed with 500 mM NaCl in buffer A and Flag-CARM1-His was eluted with 200 ug/ml FLAG peptide in buffer A. Pooled fractions were dialyzed in 20 mM Tris, 150 mM NaCl, 5% glycerol and 1 mM DTT, pH 7.8. The purity of recovered protein was 94.
General Procedure for CARM1 Enzyme Assays on Peptide Substrates.
The assays were all performed in a buffer consisting of 20 mM Bicine (pH=7.6), 1 mM TCEP, 0.005% BSG, and 0.002% Tween 20, prepared on the day of use. Compounds in 100% DMSO (1 ul) were spotted into a polypropylene 384-well V-bottom plates (Greiner) using a Platemate Plus outfitted with a 384-channel head (Thermo Scientific). DMSO (1 ul) was added to Columns 11, 12, 23, 24, rows A-H for the maximum signal control and 1 ul of SAH, a known product and inhibitor of CARM1, was added to columns 11, 12, 23, 24, rows I-P for the minimum signal control. A cocktail (40 ul) containing the CARM1 enzyme was added by Multidrop Combi (Thermo-Fisher). The compounds were allowed to incubate with CARM1 for 30 min at room temperature, then a cocktail (10 ul) containing ^3H-SAM and peptide was added to initiate the reaction (final volume=51 ul). The final concentrations of the components were as follows: CARM1 was 0.25 nM, ^3H-SAM was 30 nM, peptide was 250 nM, SAH in the minimum signal control wells was 1 mM, and the DMSO concentration was 2%. The assays were stopped by the addition of non-radiolabeled SAM (10 ul) to a final concentration of 300 uM, which dilutes the ^3H-SAM to a level where its incorporation into the peptide substrate is no longer detectable. 50 ul of the reaction in the 384-well polypropylene plate was then transferred to a 384-well Flashplate and the biotinylated peptides were allowed to bind to the streptavidin surface for at least 1 hour before being washed once with 0.1% Tween20 in a Biotek ELx405 plate washer. The plates were then read in a PerkinElmer TopCount plate reader to measure the quantity of ^3H-labeled peptide bound to the Flashplate surface, measured as disintegrations per minute (dpm) or alternatively, referred to as counts per minute (cpm).
Where dpm=disintegrations per minute, cmpd=signal in assay well, and min and max are the respective minimum and maximum signal controls.
Where top and bottom are the normally allowed to float, but may be fixed at 100 or 0 respectively in a 3-parameter fit. The Hill Coefficient normally allowed to float but may also be fixed at 1 in a 3-parameter fit. Y is the % inhibition and X is the compound concentration.

Structure (SMILES) | IC50 [nM]
Cc1ccc(/C=C/c2n[nH]cc2CN(C)CCN)cc1 [Compound 8] | 101 to 1000
CNCCN(C)Cc1c[nH]nc1/C=C/c1ccc(OC)cc1 [Compound 7] | < 100
CN(CCN)Cc1c[nH]nc1/C=C/c1ccc(F)cc1F [Compound 13] | 101 to 1000
CN(CCN)Cc1c[nH]nc1/C=C/c1cc(F)cc(F)c1 [Compound 15] | 101 to 1000
CNCCN(C)Cc1c[nH]nc1C#Cc1ccc(C(C)(C)C)cc1 [Compound 2] | 101 to 1000
CN(CCN)Cc1c[nH]nc1CCc1ccc(F)cc1 [Compound 23, N^1-((3-(4-fluorophenethyl)-1H-pyrazol-4-yl)methyl)-N^1-methylethane-1,2-diamine] | 1010 to 3000
CNCCN(C)Cc1c[nH]nc1/C=C/c1ccc(-c2ccccc2)cc1 [Compound 5] | 101 to 1000
CNCCN(C)Cc1c[nH]nc1C#Cc1ccccc1 [Compound 3] | 1010 to 3000
CN(CCN)Cc1c[nH]nc1/C=C/c1cccc(C(F)(F)F)c1 [Compound 16] | 101 to 1000
CN(CCN)Cc1c[nH]nc1/C=C/c1cccc(F)c1 [Compound 20] | 101 to 1000
COC/C=C/c1n[nH]cc1CN(C)CCN [Compound 19] | 3010 to 10000
CN(CCN)Cc1c[nH]nc1/C=C/c1cc(C(F)(F)F)cc(C(F)(F)F)c1 [Compound 14] | 101 to 1000
CNCCN(C)Cc1c[nH]nc1C#Cc1cccc(OC)c1 [Compound 1] | 101 to 1000
CNCCN(C)Cc1c[nH]nc1C#Cc1ccc(F)cc1 [Compound 4] | 101 to 1000
COc1cc(/C=C/c2n[nH]cc2CN(C)CCN)cc(OC)c1 [Compound 11] | < 100
CNCCN(C)Cc1c[nH]nc1/C=C/c1ccc(C(F)(F)F)cc1 [Compound 6] | 101 to 1000
CN(CCN)Cc1c[nH]nc1C1CCCCC1 [Compound 22] | 3010 to 10000
CN(CCN)Cc1c[nH]nc1/C=C/c1ccc(C(F)(F)F)cc1 [Compound 18] | < 100
COc1cccc(/C=C/c2n[nH]cc2CN(C)CCN)c1 [Compound 17] | < 100

— US11185531B2, “Arginine methyltransferase inhibitors and uses thereof” (Epizyme, Inc., priority 2013, dated 2021)
